Active and inactive are the calls of the source. The rule behind the calls is not given here.
How the values were obtained:
Rattus norvegicus [1] = assay: Antisecretory activity in Sprague-Dawley rat assessed as decrease in acid output at 50 mg/kg, po administered 30 mins prior to pylorus ligation measured after 4 hrs relative to control; type: functional; design: scale not given: the % may be the effect or the level left
Rattus norvegicus [2] = assay: Increase in pepsin concentration in Sprague-Dawley rat at 50 mg/kg, po administered 30 mins prior to pylorus ligation measured after 4 hrs relative to control; type: functional
Rattus norvegicus [3] = assay: Increase in pepsin output in Sprague-Dawley rat at 50 mg/kg, po administered 30 mins prior to pylorus ligation measured after 4 hrs relative to control; type: functional
Rattus norvegicus [4] = species: Rattus norvegicus; assay: animal or person; type: functional; conditions: Charles River, route oral
Description: Antidiarrheal activity in Charles River rat assessed as inhibition of castor oil-induced diarrhea by measuring protected animals at 0.5 mg/kg, po administered 1 hr prior to castor oil challenge measured after 1 hr relative to vehicle-treated control

[5] = Acute toxicity in po dosed mouse; type: organism-based; conditions: in vivo
Rattus norvegicus [6] = assay: Antipsychotic activity in rat assessed as reduction of methamphetamine-induced hyperactivity at 10 mg/kg, po administered prior to methamphetamine challenge relative to vehicle-treated control; type: functional; design: scale not given: the % may be the effect or the level left
Mus musculus [7] = assay: Antidepressant activity in mouse assessed as potentiation of DOPA-induced effect at 5 mg/kg, po administered 4 hrs prior to DOPA challenge; type: functional, organism-based; design: dose 5 mg/kg
Mus musculus [8] = assay: Anticonvulsant activity in po dosed mouse assessed as dose required to protect 80% of animal measured after 1 to 4 hrs by audiogenic seizure test; type: functional
Rattus norvegicus [9] = assay: Antihypertensive activity in spontaneously hypertensive rat model assessed as reduction in blood pressure at 25 mg/kg, po after 3 hrs; type: functional; design: scale not given: the % may be the effect or the level left
Rattus norvegicus [10] = assay: Antihypertensive activity in spontaneously hypertensive rat model assessed as reduction in blood pressure at 25 mg/kg, po after 24 hrs; type: functional; design: scale not given: the % may be the effect or the level left
Rattus norvegicus [11] = assay: Antihypertensive activity in spontaneously hypertensive rat model assessed as reduction in blood pressure at 10 mg/kg, po after 3 hrs; type: functional; design: scale not given: the % may be the effect or the level left
Rattus norvegicus [12] = assay: Antihypertensive activity in spontaneously hypertensive rat model assessed as reduction in blood pressure at 10 mg/kg, po after 24 hrs; type: functional; design: scale not given: the % may be the effect or the level left
Felis catus [13] = assay: Hypnotic activity in cat assessed as increase in total sleep time at 1 mg/kg administered orally through diet measured for 12 hrs by EEG analysis; type: functional; conditions: route oral
Felis catus [14] = assay: Hypnotic activity in cat assessed as increase in total sleep time at 4 mg/kg administered orally through diet measured for 12 hrs by EEG analysis; type: functional; conditions: route oral
Felis catus [15] = assay: Hypnotic activity in cat assessed as increase in non-REM sleep time at 1 mg/kg administered orally through diet measured for 12 hrs by EEG analysis; type: functional; conditions: route oral
Felis catus [16] = assay: Hypnotic activity in cat assessed as decrease in non-REM sleep time at 4 mg/kg administered orally through diet measured for 12 hrs by EEG analysis; type: functional; conditions: route oral
Rattus norvegicus [17] = assay: Increase in volume in Sprague-Dawley rat at 50 mg/kg, po administered 30 mins prior to pylorus ligation measured after 4 hrs relative to control; type: functional
Rattus norvegicus [18] = assay: Antisecretory activity in Sprague-Dawley rat assessed as decrease in acidity at 50 mg/kg, po administered 30 mins prior to pylorus ligation measured after 4 hrs relative to control; type: functional; design: scale not given: the % may be the effect or the level left
Mus musculus [19] = assay: Analgesic activity in po dosed mouse assessed as inhibition of acetic acid-induced writhing administered 30 mins prior to acetic acid challenge measured after 5 mins for 20 mins; type: functional
Mus musculus [20] = assay: Antianxiety activity in albino BALB/cJ mouse assessed as reduction in footshock-induced fighting behavior at 10 mg/kg, po after 30 to 90 mins; type: functional; design: scale not given: the % may be the effect or the level left
Rattus norvegicus [21] = assay: Antianxiety activity in Long-Evans rat assessed as reduction in motor activity at 5 mg/kg, po after 2 hrs relative to vehicle-treated control; type: functional; design: scale not given: the % may be the effect or the level left
Rattus norvegicus [22] = assay: Antianxiety activity in Long-Evans rat assessed as reduction in motor activity at 20 mg/kg, po after 2 hrs relative to vehicle-treated control; type: functional; design: scale not given: the % may be the effect or the level left
Rhesus monkey = assay: Antianxiety activity in po dosed rhesus monkey assessed as antiagressive behavior measured every hour post dosing; type: functional; conditions: Macaca mulatta, read-out: MED
Canis familiaris = assay: Antianxiety activity in po dosed dog assessed as ataxia administered as single dose measured up to 24 hrs; type: functional; conditions: Canis lupus familiaris, read-out: MED
Rattus norvegicus [23] = assay: Antipsychotic activity in rat assessed as reduction of methamphetamine-induced hyperactivity at 5 mg/kg, po administered prior to methamphetamine challenge relative to vehicle-treated control; type: functional; design: scale not given: the % may be the effect or the level left
Mus musculus [24] = assay: Increase in footshock-induced fighting behavior in albino BALB/cJ mouse at 5 mg/kg, po after 30 to 90 mins; type: functional
Rattus norvegicus [25] = assay: Antipsychotic activity in rat assessed as reduction of methamphetamine-induced hyperactivity at 1 mg/kg, po administered prior to methamphetamine challenge relative to vehicle-treated control; type: functional; design: scale not given: the % may be the effect or the level left
Felis catus [26] = assay: Hypnotic activity in cat assessed as increase in total sleep time at 0.5 mg/kg administered orally through diet measured for 12 hrs by EEG analysis; type: functional; conditions: route oral
Felis catus [27] = assay: Hypnotic activity in cat assessed as increase in non-REM sleep time at 0.5 mg/kg administered orally through diet measured for 12 hrs by EEG analysis; type: functional; conditions: route oral
Rattus norvegicus [28] = assay: Analgesic activity in po dosed Sprague-Dawley rat after 15 to 90 mins by tail flick test; type: functional
Rattus norvegicus [29] = assay: Antianxiety activity in Long-Evans rat assessed as reduction in motor activity at 10 mg/kg, po after 2 hrs relative to vehicle-treated control; type: functional; design: scale not given: the % may be the effect or the level left
Rattus norvegicus [30] = assay: Antiulcer activity in albino Sprague-Dawley rat shay ulcer model assessed as ulcer index scores at 50 mg/kg administered intraduodenally post pyloric ligation measured after 18.5 hrs relative to vehicle-treated control; type: functional; conditions: route intraduodenal
Rattus norvegicus [31] = assay: Antisecretory activity in Sprague-Dawley rat assessed as decrease in pepsin output at 50 mg/kg, po administered 30 mins prior to pylorus ligation measured after 4 hrs relative to control; type: functional; design: scale not given: the % may be the effect or the level left
Rattus norvegicus [32] = assay: Antiulcer activity in albino Sprague-Dawley rat stress ulcer model assessed as prevention of stress-induced gastric lesions by measuring ulcer index score at 10 mg/kg, po administered 30 mins prior to stress measured after 4 hrs; type: functional, Stomach
Rattus norvegicus [33] = assay: Antiulcer activity in albino Sprague-Dawley rat reserpine ulcer model assessed as prevention of reserpine-induced gastric lesions by measuring ulcer index scores at 10 mg/kg, po administered 30 mins prior to reserpine challenge measured after 6 hrs; type: functional; conditions: Stomach
Rattus norvegicus [34] = assay: Antiulcer activity in albino Sprague-Dawley rat shay ulcer model assessed as ulcer index scores at 20 mg/kg administered intraduodenally post pyloric ligation measured after 18.5 hrs relative to vehicle-treated control; type: functional
Rattus norvegicus [35] = assay: Antiulcer activity in albino Sprague-Dawley rat stress ulcer model assessed as prevention of stress-induced gastric lesions by measuring ulcer index score at 40 mg/kg, po administered 30 mins prior to stress measured after 4 hrs; type: functional, Stomach
Rattus norvegicus [36] = assay: Antiulcer activity in albino Sprague-Dawley rat reserpine ulcer model assessed as prevention of reserpine-induced gastric lesions by measuring ulcer index scores at 50 mg/kg, po administered 30 mins prior to reserpine challenge measured after 6 hrs; type: functional, Stomach
Rattus norvegicus [37] = assay: Antipsychotic activity in rat assessed as reduction of methamphetamine-induced hyperactivity at 20 mg/kg, po administered prior to methamphetamine challenge relative to vehicle-treated control; type: functional; design: scale not given: the % may be the effect or the level left
Rattus norvegicus [38] = assay: Antihypertensive activity in spontaneously hypertensive rat model assessed as reduction in blood pressure at 0.3 mg/kg, po after 3 hrs; type: functional; design: scale not given: the % may be the effect or the level left
Rattus norvegicus [39] = assay: Antihypertensive activity in spontaneously hypertensive rat model assessed as reduction in blood pressure at 0.3 mg/kg, po after 24 hrs; type: functional; design: scale not given: the % may be the effect or the level left
Felis catus [40] = assay: Hypnotic activity in cat assessed as increase in total sleep time at 0.25 mg/kg administered orally through diet measured for 12 hrs by EEG analysis; type: functional; conditions: route oral
Felis catus [41] = assay: Hypnotic activity in cat assessed as increase in non-REM sleep time at 0.25 mg/kg administered orally through diet measured for 12 hrs by EEG analysis; type: functional; conditions: route oral
Felis catus [42] = assay: Hypnotic activity in cat assessed as decrease in non-REM sleep time at 0.5 mg/kg administered orally through diet measured for 12 hrs by EEG analysis; type: functional; conditions: route oral
Rattus norvegicus [43] = assay: Antisecretory activity in Sprague-Dawley rat assessed as decrease in volume at 50 mg/kg, po administered 30 mins prior to pylorus ligation measured after 4 hrs relative to control; type: functional; design: scale not given: the % may be the effect or the level left
Rattus norvegicus [44] = assay: Antianxiety activity in Long-Evans rat assessed as reduction in motor activity at 1 mg/kg, po after 2 hrs relative to vehicle-treated control; type: functional; design: scale not given: the % may be the effect or the level left
Rattus norvegicus [45] = assay: Antianxiety activity in Long-Evans rat assessed as reduction in motor activity at 4 mg/kg, po after 2 hrs relative to vehicle-treated control; type: functional; design: scale not given: the % may be the effect or the level left

CCCCCc1cc(O)c2c(c1)OC(C)(C)[C@@H]1CCC(C)=C[C@@H]21 [DRONABINOL]
Activity (Rattus norvegicus [1]): 7.3%
Activity (Rattus norvegicus [2]): 8.2%
Activity (Rattus norvegicus [3]): 8.9%
inhibition in vivo at 0.5 mg/kg (Rattus norvegicus [4]): 0%
LD50 [5]: ≥ 1000 mg/kg
Activity (Rattus norvegicus [6]): 41%
Activity (Mus musculus [7]): Active
Activity (Mus musculus [8]): 20 mg/kg
Activity (Rattus norvegicus [9]): 39%
Activity (Rattus norvegicus [10]): 21%
Activity (Rattus norvegicus [11]): 6%
Activity (Rattus norvegicus [12]): 8%
Time (Felis catus [13]): 29 min
Time (Felis catus [14]): 17 min
Time (Felis catus [15]): 1 min
Time (Felis catus [16]): -3 min
Activity (Rattus norvegicus [17]): 0.7%
Activity (Rattus norvegicus [18]): 7.5%
ED50 (Mus musculus [19]): 43 mg/kg
Activity (Mus musculus [20]): 68%
Activity (Rattus norvegicus [21]): 14%
Activity (Rattus norvegicus [22]): 72%
minimal effective dose (Rhesus monkey): 1 mg/kg
minimal effective dose (Canis familiaris): 0.5 mg/kg
Activity (Rattus norvegicus [23]): 15%

C#CCN1CCC2=C(C1)c1c(O)cc(C(C)C(C)CCc3ccc(F)cc3)cc1OC2(C)C (stereo not given)
Activity (Mus musculus [24]): 30%
Activity (Rattus norvegicus [25]): 23%
inhibition in vivo at 0.5 mg/kg (Rattus norvegicus [4]): 0%
LD50 [5]: ≥ 1000 mg/kg
Time (Felis catus [26]): 58 min
Time (Felis catus [27]): 60 min
ED50 (Mus musculus [19]): 4.4 mg/kg
ED50 (Rattus norvegicus [28]): 8.3 mg/kg
Activity (Rattus norvegicus [21]): 59%
Activity (Rattus norvegicus [29]): 73%
minimal effective dose (Canis familiaris): 10 mg/kg
Activity (Rattus norvegicus [23]): 53%

C#CCN1CCC2=C(C1)c1c(O)cc(C(C)CCCc3ccc(F)cc3)cc1OC2(C)C (stereo not given)
UI (Rattus norvegicus [30]): 1.3
Activity (Rattus norvegicus [1]): 42.9%
Activity (Rattus norvegicus [31]): 22.2%
inhibition in vivo at 0.5 mg/kg (Rattus norvegicus [4]): 53%
UI (Rattus norvegicus [32]): 1.7
Activity (Rattus norvegicus [33]): inactive
Activity (Rattus norvegicus [34]): Active
LD50 [5]: ≥ 1000 mg/kg
UI (Rattus norvegicus [35]): 1.4
UI (Rattus norvegicus [36]): 1.5
Activity (Rattus norvegicus [6]): 8%
Activity (Rattus norvegicus [37]): 34%
Activity (Rattus norvegicus [11]): 30%
Activity (Rattus norvegicus [12]): 15%
Activity (Rattus norvegicus [38]): 22%
Activity (Rattus norvegicus [39]): 15%
Time (Felis catus [26]): 99 min
Time (Felis catus [40]): 45 min
Time (Felis catus [41]): 45 min
Time (Felis catus [42]): -20 min
Activity (Rattus norvegicus [43]): 33.3%
Activity (Rattus norvegicus [18]): 12.8%
ED50 (Mus musculus [19]): 5.3 mg/kg
Activity (Rattus norvegicus [44]): 60%
ED50 (Rattus norvegicus [28]): 3.7 mg/kg
Activity (Mus musculus [20]): 47%
Activity (Rattus norvegicus [45]): 77%
minimal effective dose (Canis familiaris): 1 mg/kg

— ChEMBL document CHEMBL3272295, “Drugs derived from cannabinoids. 5. delta6a,10a-Tetrahydrocannabinol and heterocyclic analogs containing aromatic side chains” (J Med Chem, 1976)
